Counter-ions that a name gives are not always drawn.
Experiment: Solubility
Format: physicochemical

| solubility (in benzene, aliphatic esters, ethyl ether) | solubility (in butanol, acetone) | solubility (in methanol, ethanol, chloroform) | solubility (in petroleum ether) | Compound | solubility in water | solubility (in chloroform, acetone, benzol and non-polar solvents) | solubility (in methanol, aqueous alcohols) | solubility (in lower aliphatic alcohols, halogenated hydrocarbon (chloroform), ketones (acetone, methylethylketone)) |
| --- | --- | --- | --- | --- | --- | --- | --- | --- |
| scarcely soluble | less soluble | soluble | insoluble | COc1cccc2c1C(=O)c1c(O)c3c(c(O)c1C2=O)C[C@@](O)(C(C)=O)C[C@@H]3O [Daunomycinone, daunomycinone] | insoluble |  |  |  |
|  |  |  |  | COc1cccc2c1C(=O)c1c(O)c3c(c(O)c1C2=O)C[C@@](O)(C(C)=O)C[C@@H]3O[C@H]1C[C@H](N)[C@H](O)[C@H](C)O1 [F.I. 1762 hydrochloride] | soluble | insoluble | soluble |  |
|  |  |  |  | COc1cccc2c1C(=O)c1c(O)c3c(c(O)c1C2=O)C[C@@](O)(C(C)=O)C[C@@H]3O[C@H]1C[C@H](N)[C@H](O)[C@H](C)O1 [F.I. 1762 picrate] |  |  |  | soluble |
